Read-outs that look alike come from different tables or passages of the source.
Experiments:
[1] = Pharmacokinetics in male rats (LC-MS/MS); format: in vivo; conditions: SD, rat, plasma, iv, 5 mg/kg
Protocol: (§1) Male SD rats were intravenous injection with Cpd.51, blood and brain tissues were collected 15 min, 1 h, 4 h, 6 h, 8 h and 24 h after drug administration. Samples were measured by a Shimadzu chromatography system (Shimadzu, Kyoto, Japan) coupled with an AB Sciex triple quadrupole 4500 mass spectrometer (SCIEX Triple Quad™ 4500 LC-MS/MS, Applied Biosystems Sciex, Ontario, Canada) using Analyst 1.4.2 software. A HPLC column (ACQUITY UPLC BEH C18, 2.1 × 50 mm, 1.7 μm) were used. Protein precipitation method was used for detection: 50 μL plasma sample or brain homogenate sample were added with 200 μL acetonitrile containing internal standard for precipitation, then vortexed for 3 min. The supernatant was injected into system for analysis after centrifugation.

[2] = Plasma and brain levels after i.v. dosing (blood-brain barrier); format: in vivo, rat; conditions: for concentration at 0.25 h / concentration at 1 h / concentration at 4 h: intravenous, i.v.
Protocol: as §1

[3] = Microsomal metabolic stability, dog; format: in vitro ADME; conditions: dog liver microsomes
Protocol: The liver microsomal incubation system comprised human, dog, or rat liver microsomal protein (0.75 mg/mL), nicotinamide adenine dinucleotide phosphate (NADPH) generation system, potassium phosphate buffer (0.1 M, pH 7.4), substrate, and inhibitor. The assay was conducted by first preparing a potassium phosphate buffer. Compounds and liver microsomes were then diluted and pre-incubated at 37 °C before initiating the reaction with NADPH. Aliquots were quenched with acetonitrile containing internal standard at specified time points. After sample processing (shaking and centrifugation), the supernatants were analyzed by LC-MS/MS to determine metabolic stability.

Nrf2 = Nrf2 (Homo sapiens, UniProt Q14145); test: Nrf2 nuclear translocation by immunofluorescence; format: cell-based; conditions: 100 nM, SH-SY5Y cells and primary cortical neurons
Protocol: Immunostaining: cells were fixed with 4% paraformaldehyde for 20 min and then incubated with blocking solution (10% normal goat serum, 0.5% Triton X-100 in PBS) for 1 h at room temperature. Then, the samples were incubated overnight with primary antibodies: anti-Nrf2 (1:200, CST), anti-DHRS3 (1:300, Proteintech), anti-NeuN (1:500, Servicebio). When evaluating the extraction efficiency of primary cortical neurons, we performed co-staining with β-tubulin (1:200, Abcam) and Synaptophysin (1:300, ABclonal). After being washed with PBST three times, the samples were incubated with the corresponding secondary antibodies for 2 h in the dark. The nuclei were stained with DAPI (C1006-200mL, Beyotime, China) for 20 min. Finally, images were captured with a fluorescence microscope. Fluorescence integrated density was measured by ImageJ as previously described.

[4] = tested on: SH-SY5Y cells and primary cortical neuron cells; test: Mitochondrial function in the OGD/R model (JC-1, Calcein-AM, DCFH-DA, ATP); format: cell-based
Protocol: Experiment two: mitochondrial ATP levels were assayed using ATP assay kit (S0027, Beyotime, China) according to the manufacturer's protocols. The cells were cultured by placing them in six-well plates as described in the "Cell culture and drug administration in vitro" method. Subsequently, 200 uL of lysate was added into the hole and supernatants were collected (4 °C, 12000 g, 5 min). 100 uL supernatants cultured with 100 µL probe of ATP, and the RLU was measured by a luminometer.
Assay of ROS generation production: cellular ROS were examined using an ROS Assay Kit (S0033S, Beyotime, China). Cells were incubated with DCFH-DA for 20 min at 37 °C in the dark, and then washed three times with PBS. The fluorescence intensity was measured by Laser Scanning Confocal Microscope (CLSM; ZEISS LSM 800, Germany).
Mitochondrial membrane potential (MMP) and MPTP assessment: MMP changes were measured by a mitochondrial membrane potential assay kit with JC-1 (C2003S, Beyotime, China) according to the manufacturer's instructions. Higher ratios of red to green fluorescence were correlated with higher mitochondrial membrane polarization. In addition, MPTP opening was assessed by Calcein-AM assays (Y237214-1mg, Beyotime, China). […] For detailed instructions, please refer to the manual.

DHRS3-Nrf2 complex = target: T1, DHRS3-Nrf2 complex (Homo sapiens, UniProt O75911); test: Co-IP of Nrf2-DHRS3 interaction in SH-SY5Y cells; format: cell-based; conditions: 100 nM, physiological and OGD/R conditions
T1 construct: endogenous in cells; host or cells: SH-SY5Y
T1 sequence (O75911 1-302): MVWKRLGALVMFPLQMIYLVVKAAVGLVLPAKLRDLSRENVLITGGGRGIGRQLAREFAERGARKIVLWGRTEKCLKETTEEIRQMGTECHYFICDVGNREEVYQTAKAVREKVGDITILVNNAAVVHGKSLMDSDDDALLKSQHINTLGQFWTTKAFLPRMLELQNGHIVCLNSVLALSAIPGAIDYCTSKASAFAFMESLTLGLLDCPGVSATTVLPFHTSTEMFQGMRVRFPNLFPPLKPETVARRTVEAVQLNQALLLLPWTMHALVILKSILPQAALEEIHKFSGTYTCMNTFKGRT
Protocol: Co-IP experiments were performed as described. After SH-SY5Y cells were treated, lysates were collected and incubated with antibodies with rotation for 12 h at 4 °C. Then, they were incubated with protein A/G magnetic beads (88804, Thermo Scientific, USA) as specification. Subsequently, the beads were collected and immune complexes were isolated. Finally, protein complexes were incubated for 5 min at 95 °C after dissolving in the electrophoresis sample buffer, and subjected to western blotting.

DHRS3 = test: Western blotting of DHRS3 in SH-SY5Y cells after OGD/R; format: cell-based, human
Protocol: The western blotting analysis was conducted as we previously described. First, the total protein was extracted using RIRA buffer and then the protein concentrations were determined using the BCA kit (P0012, Beyotime, China). The extraction of mitochondrial proteins was carried out according to the instructions (C3601, Beyotime, China). The samples were separated electrophoretically and then wet-transferred onto 0.2 μm PVDF membranes (88520, Thermo Scientific, USA). After blocking with 5% non-fat dry milk in Tris-buffered saline (TBS) (pH 7.4) containing 0.1% Tween 20 at room temperature for 2 h, the protein membranes were sequentially immersed with the primary antibody at 4 °C overnight and secondary antibody at room temperature for 1 h. Finally, the membranes were quantified using image analysis system.

[5] = Pharmacokinetics in male rats (LC-MS/MS); format: in vivo; conditions: SD, rat, plasma

Sequence of Nrf2 (Q14145 whole entry): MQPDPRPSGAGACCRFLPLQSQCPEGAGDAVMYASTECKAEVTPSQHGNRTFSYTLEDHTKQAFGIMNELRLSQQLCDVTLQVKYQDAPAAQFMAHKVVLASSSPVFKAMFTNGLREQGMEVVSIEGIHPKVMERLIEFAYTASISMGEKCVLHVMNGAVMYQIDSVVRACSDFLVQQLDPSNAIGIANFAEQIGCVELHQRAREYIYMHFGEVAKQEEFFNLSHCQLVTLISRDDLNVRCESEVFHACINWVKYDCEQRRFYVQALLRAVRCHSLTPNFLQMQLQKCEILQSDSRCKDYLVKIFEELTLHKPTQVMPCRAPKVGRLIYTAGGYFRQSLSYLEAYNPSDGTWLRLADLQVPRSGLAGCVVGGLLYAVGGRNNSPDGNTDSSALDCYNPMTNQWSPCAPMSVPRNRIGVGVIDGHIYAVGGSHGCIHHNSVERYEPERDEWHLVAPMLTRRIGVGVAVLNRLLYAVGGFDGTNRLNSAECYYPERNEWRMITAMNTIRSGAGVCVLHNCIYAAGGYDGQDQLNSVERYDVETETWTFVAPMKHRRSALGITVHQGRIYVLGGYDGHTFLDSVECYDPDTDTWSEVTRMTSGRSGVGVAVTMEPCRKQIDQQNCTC
Sequence of Nrf2 (Q16236 whole entry, further chain): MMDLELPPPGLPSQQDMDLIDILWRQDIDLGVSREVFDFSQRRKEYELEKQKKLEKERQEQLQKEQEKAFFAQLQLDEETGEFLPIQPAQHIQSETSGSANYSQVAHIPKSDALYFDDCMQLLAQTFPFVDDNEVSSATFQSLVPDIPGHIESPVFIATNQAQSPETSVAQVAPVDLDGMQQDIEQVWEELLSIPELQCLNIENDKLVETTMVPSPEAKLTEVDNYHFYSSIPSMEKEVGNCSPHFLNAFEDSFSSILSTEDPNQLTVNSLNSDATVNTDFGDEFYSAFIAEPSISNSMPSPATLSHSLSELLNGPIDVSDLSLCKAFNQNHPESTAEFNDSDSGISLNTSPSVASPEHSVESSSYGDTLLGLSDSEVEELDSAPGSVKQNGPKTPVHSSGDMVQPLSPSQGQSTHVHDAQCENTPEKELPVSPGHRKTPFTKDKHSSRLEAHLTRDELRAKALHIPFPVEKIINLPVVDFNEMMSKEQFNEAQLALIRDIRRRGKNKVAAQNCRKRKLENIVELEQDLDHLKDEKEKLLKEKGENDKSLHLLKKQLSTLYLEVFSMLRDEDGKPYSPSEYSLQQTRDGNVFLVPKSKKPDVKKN

CC1(C)CCC2(C(=O)NO)CCC3(C)C(C(=O)C=C4C5(C)C=C(C#N)C(=O)C(C)(C)C5CCC43C)C2C1 (stereo not shown) [Cpd.51]
AUC(0-t) [1]: 991 ± 70 ng·h/mL | C0 [1]: 3410 ± 45 ng/mL | Cmax [1]: 2120 ± 75 ng/mL | MRT last [1]: 0.843 ± 0.054 h | clearance ([1]; i.v., read-out: CL_obs (converted)): 83.5 mL/min/kg | distribution to brain tissue ([2]; intravenous administration): relatively effective distribution to brain tissue | concentration at 0.25 h ([2]; male, SD, rat, brain, 5 mg/kg, 0.25 h, read-out: Brain): 86.7 ± 49.3 ng/g | concentration at 1 h ([2]; male, SD, rat, brain, 5 mg/kg, 1 h, read-out: Brain): 29.5 ± 17.5 ng/g | concentration at 4 h ([2]; male, SD, rat, brain, 5 mg/kg, 4 h, read-out: Brain): 10.3 ± 4 ng/g | Kp at 0.25 h ([2]; male, SD, rat, brain, iv, 5 mg/kg, 0.25 h): 0.07 ± 0.04 | Kp at 1 h ([2]; male, SD, rat, brain, iv, 5 mg/kg, 1 h): 0.16 ± 0.12 | Kp at 4 h ([2]; male, SD, rat, brain, iv, 5 mg/kg, 4 h): 0.28 ± 0.14 | concentration at 0.25 h ([2]; male, SD, rat, plasma, 5 mg/kg, 0.25 h, read-out: Plasma): 1290 ± 68 ng/mL | concentration at 1 h ([2]; male, SD, rat, plasma, 5 mg/kg, 1 h, read-out: Plasma): 198 ± 44 ng/mL | concentration at 4 h ([2]; male, SD, rat, plasma, 5 mg/kg, 4 h, read-out: Plasma): 39.5 ± 10.4 ng/mL | Remainig (%, t = 60 min) [3]: 32.9% | CLint scaled ([3]; dog, pH 7.4): 51 mL/min/kg | half-life ([3]; dog, pH 7.4): 0.653 h | Nrf2 nuclear translocation (Nrf2): Nrf2 nuclear translocation within 15 min | mitochondrial membrane potential (JC-1) [4]: enhanced mitochondrial membrane potential | mitochondrial permeability (MPTP, Calcein AM) [4]: reduced mitochondrial permeability | ATP production ([4]; SH-SY5Y cells): increased ATP production | reactive oxygen species production (DCFH-DA) ([4]; SH-SY5Y cells): decreased reactive oxygen species production | DHRS3-Nrf2 complex formation (Co-IP) (DHRS3-Nrf2 complex): substantially reduced DHRS3-Nrf2 complex formation | DHRS3 protein expression induced by OGD/R (DHRS3): substantially attenuated this induction | half-life ([5]; 30 mg/kg, i.g. (oral)): 6.36 h | half-life ([5]; iv, 5 mg/kg): 1.49 ± 0.31 h | AUC(0-t) ([5]; po, 30 mg/kg, i.g.): 685 ± 111 ng·h/mL | Cmax ([5]; po, 30 mg/kg, i.g.): 124 ± 37 ng/mL | MRT last ([5]; po, 30 mg/kg, i.g.): 5.17 ± 0.72 h | bioavailability ([5]; po, 30 mg/kg, i.g., read-out: F (oral bioavailability)): 11.5%
